Results from patent publication US11365188B2, “JAK inhibitors” (priority 2018, dated 2022).

What was measured:
Assay type in all cases: biochemical
JAK3 = target: T1, JAK3 (Homo sapiens, UniProt P52333); assay: JAK3 Assay (Caliper EZ Reader, fluoresceinated peptide); conditions: ATP 3.5 μM; JAK3 0.5 nM; 30 minutes at room temperature; read-out: JAK3 inhibition
T1 sequence (P52333 1-1124): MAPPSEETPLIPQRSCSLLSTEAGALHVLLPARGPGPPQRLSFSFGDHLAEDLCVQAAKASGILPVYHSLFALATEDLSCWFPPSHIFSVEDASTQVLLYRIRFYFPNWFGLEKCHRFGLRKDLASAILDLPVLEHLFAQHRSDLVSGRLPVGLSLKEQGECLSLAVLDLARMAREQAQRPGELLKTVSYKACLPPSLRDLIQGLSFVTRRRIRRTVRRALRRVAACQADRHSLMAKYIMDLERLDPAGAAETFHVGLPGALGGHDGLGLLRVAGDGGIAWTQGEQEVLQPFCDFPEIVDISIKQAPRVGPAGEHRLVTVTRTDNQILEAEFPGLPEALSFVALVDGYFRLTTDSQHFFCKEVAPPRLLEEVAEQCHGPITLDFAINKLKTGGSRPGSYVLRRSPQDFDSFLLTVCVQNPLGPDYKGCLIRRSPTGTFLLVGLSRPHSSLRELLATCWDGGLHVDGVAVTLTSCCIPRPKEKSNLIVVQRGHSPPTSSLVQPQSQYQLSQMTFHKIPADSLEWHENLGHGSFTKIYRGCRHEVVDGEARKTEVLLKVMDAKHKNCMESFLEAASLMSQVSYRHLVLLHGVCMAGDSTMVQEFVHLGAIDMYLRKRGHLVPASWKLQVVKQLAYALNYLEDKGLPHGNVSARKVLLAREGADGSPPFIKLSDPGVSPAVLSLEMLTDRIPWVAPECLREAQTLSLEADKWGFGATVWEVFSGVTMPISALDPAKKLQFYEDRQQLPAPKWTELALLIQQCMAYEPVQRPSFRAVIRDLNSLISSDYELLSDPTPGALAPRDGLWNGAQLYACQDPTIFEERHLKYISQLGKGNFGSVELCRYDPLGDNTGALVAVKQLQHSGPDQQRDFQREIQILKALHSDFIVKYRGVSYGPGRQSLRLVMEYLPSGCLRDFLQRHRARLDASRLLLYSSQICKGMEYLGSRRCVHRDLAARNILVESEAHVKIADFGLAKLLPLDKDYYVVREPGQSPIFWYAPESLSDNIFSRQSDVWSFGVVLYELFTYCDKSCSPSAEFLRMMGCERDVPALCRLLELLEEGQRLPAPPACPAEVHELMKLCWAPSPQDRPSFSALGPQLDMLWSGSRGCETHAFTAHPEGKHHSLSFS

TYK2 = TYK2 (Homo sapiens, UniProt P29597); assay: TYK2 Assay (Caliper EZ Reader, fluoresceinated peptide); conditions: ATP 35.4 μM; TYK2 10 nM; 10 minutes at room temperature; read-out: TYK2 inhibition
Procedure: 384-well plates in the left foot butoxy measured progress. The final assay volume was 25 μL, 250 nL 100× compounds, 10 μL enzyme mix and 15 μL substrate mix (fluoresceinated peptide and ATP) in assay buffer (50 mM HEPES (pH 7.5), 10 mM MgCl2, 0.01% TritonX-100, 0.01% Brij35, 0.5 mM EGTA and 2 mM DTT) prepared as test compound. B mixing the TYK2 with substrates and test compounds to start the reaction. The reaction mixture was incubated for 10 minutes at room temperature, then added 30 μL stop buffer for each sample to terminate the reaction with 50 mM EDTA. After termination of the kinase reaction, the proportion of phosphorylated product was determined as a fraction of total peptide substrate using Caliper EZ Reader 1. Inhibition data were calculated by comparison with 100% of the reaction mixture without enzyme inhibition and vehicle-only reaction mixture billion % inhibition compared. The final concentration of reagents in the assays is: ATP, 35.4 μM; TYK2 fluorescent peptide (5-FAM-KKKKEEIYFFF-CONH2), 3 μM; TYK2, 10 nM; and DMSO, 1% Dose response curve were generated to determine the concentration required for IC50 of TYK2 activity.

JAK1 = JAK1 (Homo sapiens, UniProt P23458); assay: JAK Kinase Assay (JAK1, Caliper EZ Reader, fluoresceinated peptide); conditions: ATP 76.5 μM; JAK1 10 nM; 120 minutes at room temperature; read-out: JAK1 inhibition
JAK2 = JAK2 (Homo sapiens, UniProt O60674); assay: JAK2 Assay (Caliper EZ Reader, fluoresceinated peptide); conditions: ATP 11.4 μM; JAK2 0.25 nM; 15 minutes at room temperature; read-out: JAK2 inhibition
JAK2, sequence (O60674 whole entry, species assumed): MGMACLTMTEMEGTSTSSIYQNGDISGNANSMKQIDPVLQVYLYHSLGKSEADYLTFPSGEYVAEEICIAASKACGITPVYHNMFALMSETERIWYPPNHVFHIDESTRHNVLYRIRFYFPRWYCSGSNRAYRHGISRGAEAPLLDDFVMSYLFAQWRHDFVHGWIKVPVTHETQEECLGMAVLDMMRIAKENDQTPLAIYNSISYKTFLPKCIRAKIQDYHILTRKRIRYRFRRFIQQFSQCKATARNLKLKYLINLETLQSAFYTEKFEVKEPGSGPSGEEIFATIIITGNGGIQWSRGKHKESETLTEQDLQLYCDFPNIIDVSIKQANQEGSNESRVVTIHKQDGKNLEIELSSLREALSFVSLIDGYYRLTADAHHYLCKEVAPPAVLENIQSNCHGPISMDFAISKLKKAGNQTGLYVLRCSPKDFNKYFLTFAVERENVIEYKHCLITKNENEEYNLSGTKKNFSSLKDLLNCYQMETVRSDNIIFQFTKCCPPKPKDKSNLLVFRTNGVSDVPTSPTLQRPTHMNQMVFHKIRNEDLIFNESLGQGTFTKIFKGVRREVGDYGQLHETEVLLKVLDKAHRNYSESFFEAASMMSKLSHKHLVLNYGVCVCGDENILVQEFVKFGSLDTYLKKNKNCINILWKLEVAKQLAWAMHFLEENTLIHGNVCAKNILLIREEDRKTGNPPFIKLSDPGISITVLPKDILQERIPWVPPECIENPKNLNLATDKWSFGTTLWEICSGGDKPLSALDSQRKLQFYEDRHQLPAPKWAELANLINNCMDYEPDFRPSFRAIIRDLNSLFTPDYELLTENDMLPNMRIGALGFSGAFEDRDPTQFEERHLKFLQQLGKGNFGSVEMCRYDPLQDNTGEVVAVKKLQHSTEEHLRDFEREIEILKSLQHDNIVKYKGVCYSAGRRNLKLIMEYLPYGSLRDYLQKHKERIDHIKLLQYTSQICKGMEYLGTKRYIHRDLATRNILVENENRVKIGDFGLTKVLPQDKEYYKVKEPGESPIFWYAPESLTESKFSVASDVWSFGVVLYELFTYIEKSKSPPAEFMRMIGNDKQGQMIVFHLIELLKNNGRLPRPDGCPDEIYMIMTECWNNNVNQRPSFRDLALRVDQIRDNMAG

JAK1, sequence (P23458 whole entry, species assumed): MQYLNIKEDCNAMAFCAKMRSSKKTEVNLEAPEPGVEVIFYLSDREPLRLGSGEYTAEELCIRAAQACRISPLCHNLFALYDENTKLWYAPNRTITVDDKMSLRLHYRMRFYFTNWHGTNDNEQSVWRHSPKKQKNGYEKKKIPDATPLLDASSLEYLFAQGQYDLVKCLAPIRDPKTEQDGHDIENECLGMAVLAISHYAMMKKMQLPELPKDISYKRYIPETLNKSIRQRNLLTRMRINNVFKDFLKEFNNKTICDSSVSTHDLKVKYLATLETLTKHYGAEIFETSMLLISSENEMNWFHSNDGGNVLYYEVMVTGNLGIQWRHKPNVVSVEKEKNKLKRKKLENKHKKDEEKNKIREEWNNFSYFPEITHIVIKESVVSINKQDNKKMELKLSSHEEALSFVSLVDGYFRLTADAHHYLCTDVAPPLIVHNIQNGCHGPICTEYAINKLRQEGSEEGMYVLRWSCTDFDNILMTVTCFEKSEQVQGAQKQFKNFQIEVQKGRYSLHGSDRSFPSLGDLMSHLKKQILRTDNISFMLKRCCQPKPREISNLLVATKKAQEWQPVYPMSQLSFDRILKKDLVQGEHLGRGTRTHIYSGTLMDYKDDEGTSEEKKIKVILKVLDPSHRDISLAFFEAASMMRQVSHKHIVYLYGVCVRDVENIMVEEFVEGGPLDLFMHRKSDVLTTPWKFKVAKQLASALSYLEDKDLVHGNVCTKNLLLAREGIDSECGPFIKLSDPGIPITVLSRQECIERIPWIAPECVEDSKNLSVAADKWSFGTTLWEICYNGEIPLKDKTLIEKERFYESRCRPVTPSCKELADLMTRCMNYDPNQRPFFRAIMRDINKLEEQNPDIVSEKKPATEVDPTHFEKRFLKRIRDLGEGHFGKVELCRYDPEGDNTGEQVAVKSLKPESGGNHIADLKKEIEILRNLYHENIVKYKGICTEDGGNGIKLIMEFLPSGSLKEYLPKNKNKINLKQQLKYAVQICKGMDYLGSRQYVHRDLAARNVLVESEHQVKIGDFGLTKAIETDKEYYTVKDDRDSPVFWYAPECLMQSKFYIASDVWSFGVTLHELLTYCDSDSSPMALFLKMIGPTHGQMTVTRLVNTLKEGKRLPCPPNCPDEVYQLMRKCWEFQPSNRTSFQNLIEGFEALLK
TYK2, sequence (P29597 whole entry, species assumed): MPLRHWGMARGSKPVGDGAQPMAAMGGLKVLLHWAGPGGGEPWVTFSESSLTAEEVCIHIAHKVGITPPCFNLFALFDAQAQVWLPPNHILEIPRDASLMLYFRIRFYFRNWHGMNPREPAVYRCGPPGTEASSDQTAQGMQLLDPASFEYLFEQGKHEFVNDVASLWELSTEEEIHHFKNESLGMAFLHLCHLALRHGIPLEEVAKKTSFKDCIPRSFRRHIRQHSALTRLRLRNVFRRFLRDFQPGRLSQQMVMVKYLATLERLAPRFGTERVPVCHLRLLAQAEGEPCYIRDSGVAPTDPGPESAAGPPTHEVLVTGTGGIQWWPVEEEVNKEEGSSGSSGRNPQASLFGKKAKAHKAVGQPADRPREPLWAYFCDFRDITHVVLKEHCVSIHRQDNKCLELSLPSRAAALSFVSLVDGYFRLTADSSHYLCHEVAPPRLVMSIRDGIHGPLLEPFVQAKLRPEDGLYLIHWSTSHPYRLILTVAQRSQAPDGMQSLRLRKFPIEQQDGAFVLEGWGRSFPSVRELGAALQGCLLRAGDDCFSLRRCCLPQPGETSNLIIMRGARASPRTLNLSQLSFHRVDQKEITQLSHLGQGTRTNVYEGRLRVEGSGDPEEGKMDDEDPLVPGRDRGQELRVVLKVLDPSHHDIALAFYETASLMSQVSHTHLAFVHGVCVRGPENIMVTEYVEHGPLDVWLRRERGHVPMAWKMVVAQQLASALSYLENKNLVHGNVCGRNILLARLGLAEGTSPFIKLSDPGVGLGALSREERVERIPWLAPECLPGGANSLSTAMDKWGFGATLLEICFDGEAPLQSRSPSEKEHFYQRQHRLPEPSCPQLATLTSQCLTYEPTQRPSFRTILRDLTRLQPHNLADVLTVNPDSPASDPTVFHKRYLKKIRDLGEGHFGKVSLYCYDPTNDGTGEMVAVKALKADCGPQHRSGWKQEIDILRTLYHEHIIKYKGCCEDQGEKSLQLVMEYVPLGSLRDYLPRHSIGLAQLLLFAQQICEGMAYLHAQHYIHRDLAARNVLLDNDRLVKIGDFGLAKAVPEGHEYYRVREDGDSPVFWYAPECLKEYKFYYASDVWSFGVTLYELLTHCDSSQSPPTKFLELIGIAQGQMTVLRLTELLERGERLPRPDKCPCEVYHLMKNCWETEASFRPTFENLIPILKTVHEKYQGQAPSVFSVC

Row | IC50 (JAK3) [nM] | IC50 (TYK2) [nM] | IC50 (JAK1) [nM] | IC50 (JAK2) [nM] | SMILES
1 | ≥ 10000 | ≥ 10000 | 10 to 100 | 1000 to 10000 | CN(c1ncnc2[nH]ccc12)C1CC2(C1)CN(C(=O)c1ccc(Cl)cc1)C2 [Compound 25, (4-chlorophenyl)(6-(methyl(7H-pyrrolo[2,3-d]pyrimidin-4-yl)amino)-2-azaspiro[3.3]heptan-2-yl)methanone]
2 | ≥ 10000 | 1000 to 10000 | ≤ 10 | 100 to 1000 | C#Cc1ccc(C(=O)N2CC3(CC(N(C)c4ncnc5[nH]ccc45)C3)C2)cc1 [Compound 26, (4-ethynylphenyl)(6-(methyl(7H-pyrrolo[2,3-d]pyrimidin-4-yl)amino)-2-azaspiro[3.3]heptan-2-yl)methanone]
